Measured values reported in patent US4089947A, “Antibiotic compositions containing validamycin compounds” (priority 1976, dated 1978).

Experiments:
Pellicularia sasakii [1] = experiment: Abnormal branching of hyphal tips of Pellicularia sasakii (agar dilution bioassay); format: cell-based; conditions: for highest dilution factor that causes an abnormal branching at the hyphal tips of Pellicularia sasakii: 1 mg./ml. aqueous solution as stock solution; for dilution unit (maximum dilution which produces abnormal branching): aqueous solution containing 1000 γ/ml., 27° C for 40 hours
Description: Therefore, the bioassay of the antibiotics should be conducted in the following manner.
Pellicularia sasakii is used as the test organism employing plain agar as the assay medium. The test organism is cultivated on a potato (sucrose) agar slant for 2 to 5 days, and the resulting culture is used to inoculate at the center of a 9-cm Petri dish plate of modified Pfeffer's medium, which is then incubated at 27° C for 2 days. By the end of this period, the mycelium will have spread over the entire surface of the plate. The growth on the circumference about 3 to 3.5 cm in radius from the center is cut out with a cork borer and the agar disc thus obtained is used as the inoculum.
A serial dilution series of agar plants containing varying concentrations of the antibiotics is prepared in the same manner as a conventional agar dilution method.
A glass disc of 8 mm in diameter and about 0.2 mm thick, is placed in the center of each of the aforementioned dilution series of agar plates, and the agar disc inoculum is then placed on the glass disc. After incubation at 27° C for 40 hours, the result is evaluated. […] The term dilution unit means the value of maximum dilution which produces such abnormal branching.
Modified Pfeffer's medium, which is employed in this assay, has the following composition.
Before using the medium, the following vitamins are added in the specified amounts. (Weight per ml. of medium)
When a 1 mg./ml. aqueous solution of each of validamycins C, D, E and F and validoxylamines A and B is used as a stock solution, the highest dilution factor that causes an abnormal branching at the hyphal tips of Pellicularia sasakii is as follows.

bacteria and fungi = experiment: Antimicrobial potency / growth inhibition in vitro; format: cell-based
[2] = pKa' (neutralization, in aqueous solution); format: physicochemical; conditions: water
From the text: 3. The elementary analysis, the molecular formulas as calculated therefrom, pKa' values, neutralization equivalents (molecular weight) and optical rotation values are given in Table 2.

Solubilities = format: physicochemical
[3] = Acute toxicity in mice, intravenous injection; format: in vivo; conditions: mouse, in vivo
Description: (§1) The toxicity of the antibiotics can be confirmed, for instance, by administering each of the validamycins C, D, E and F, and validoxylamines A and B, intravenously to mice and measuring the LD50 value, or by measuring the median lethal dose (48 hours) for Oryzias latipes.

[4] = Acute toxicity for Oryzias latipes (median lethal dose, 48 hours); format: in vivo; conditions: medaka, leaving in water solution, read-out: TLm
Description: as §1

Pellicularia sasakii [5] = experiment: Rice sheath blight control test, preventive (prophylactic); format: in vivo; conditions: 10 days after application, untreated 34.4cm
Description: (§2) Rice sheath blight control test
(§3) Rice Plants (variety: Kinmaze) are planted in earthen pots 9 cm in diameter, 3 stocks per pot. Seedlings 80 days after potting are tested and 6 pots each of them are grouped.
(§4) Pathogenic fungi Pellicularia sasakii is cultivated on a plate of potato infusion-sugar-agar at 30°C for 48 hours, and its agar disc 10mm in diameter is cut out from a peripheral colony. The disc is inserted into the inside space of the leaf sheath near the soil surface, a disc per stem. The pots are kept in a PVC shelter at the temperature of 32°-25° C and the relative humidity of 100-70%. Inoculation is carried out immediately after the applied drug has been air-dried in the prophylactic test, and 3 days before application in the remedial test.
(§5) 10 days after application of the drug, the length of each stem from ground level to the upper edge of the lesion is directly measured.

Pellicularia sasakii [6] = experiment: Rice sheath blight control test, remedial; format: in vivo; conditions: inoculation 3 days before application, untreated 34.4cm
Description: as §2, §3, §4, §5

Rhyzoctonia solani = experiment: Cucumber damping-off control test; format: in vivo; conditions: 14 days after sowing
Description: Cucumber damping-off control test
Rhyzoctonia solani is cultured on barley medium at 28° C for 5 days. A field soil sample is packed into clay pots 9 cm in diameter, which are then sterilized with steam. The chaff inoculum is evenly worked into the cover soil of each pot to the depth of about 3 cm, at the rate of 2g./pot. The pots are kept in an incubation chamber at 28° C for 4 days and, then, transferred to a greenhouse.
As per Experiment 1, the drug is sprayed onto the soil surface at the rate of 30 ml./6 pots/group.
Healthy seeds of cucumber (variety: Yonyo) are sown by burial in the pots immediately after treatment, at the rate of 10 seeds/pot. The pots are then placed in a greenhouse at 32°-28° C.
14 days after sowing, the results are evaluated against the following coefficients of lesion and the degrees of damage are calculated.
Coefficients of lesion (I)
0.5 : Root hairs alone are slightly affected.
1 : Aerial portions near soil surface and roots affected.
2 : Early stage of damping-off.
3 : Affected at germination; growth inhibited.
Degree of damage (%) =(Σ(nI))/3 × N × 100 wherein n means the number of samples corresponding to each coefficient of lesion and N means the total number of plants.

Cladosporium fulvum = experiment: Tomato leaf mold control test; format: in vivo; conditions: 50 ppm; 14 days after inoculation; inoculated 3 days before application
Description: Tomato leaf mold control test
Tomato plants (variety: ponterosa) are planted in 12 cm in diameter pots, one plant per pot. The seedlings 50 days after potting are used, 6 pots/group.
Applied at the rate of 100 ml./6 pots/group as per Experiment 1.
Pathogenic fungi Cladosporium fulvum is cultured on a potato infusion-sucrose plate at 20° C for 14 days, and a suspension of conidia (5×10^5 /ml.) is prepared from the culture.
The plants are spray-inoculated with the suspension 3 days before application of the drug, at the rate of 5 ml. per pot. The pots are kept in an inoculation chamber at 25° C for 24 hours, and, then they are transferred to a greenhouse.
14 days after inoculation, the specific ratio of the average area of lesion in the leaves is measured.

plant diseases = experiment: Control of plant diseases (general statement); format: in vivo; conditions: for controlling effect against plant diseases, for example, the sheath blight of the rice plant: application in vivo; for effectiveness against sheath blight and stem rot of rice plant, damping off and sclerotial blight of vegetables, flowering plants and lumber seedlings: in vivo
[7] = tested on: men and beasts, as well as to fish; experiment: Harmlessness to men, beasts and fish (general statement); conditions: in vivo
useful plants = experiment: Effect on useful plants (general statement); format: in vivo; conditions: even when applied in a high concentration

SMILES: OCC1=CC(NC2CC(CO)C(O)C(O)C2O)C(O)C(O)C1O (centres unmarked) [Validoxylamine A]
- highest dilution factor that causes an abnormal branching at the hyphal tips of Pellicularia sasakii (Pellicularia sasakii [1]): 100
- dilution unit (maximum dilution which produces abnormal branching) (Pellicularia sasakii [1]): 100 dilution unit/ml.
- antimicrobial potency / growth inhibition of bacteria and fungi in vitro (bacteria and fungi): no antimicrobial potency
- pKa [2]: 6.2 ± 0.2
- solubility in methanol (Solubilities): soluble
- LD50 [3]: > 2000 mg/kg
- LC50 at 48 h [4]: > 1000 µg/mL
- Preventive effect (percent of the average length of lesion/stem per control untreated) (Pellicularia sasakii [5]; 3 ppm): 28%
- Preventive effect (percent of the average length of lesion/stem per control untreated) (Pellicularia sasakii [5]; 10 ppm): 4%
- Preventive effect (percent of the average length of lesion/stem per control untreated) (Pellicularia sasakii [5]; 30 ppm): 1%
- Preventive effect (percent of the average length of lesion/stem per control untreated) (Pellicularia sasakii [5]; 100 ppm): 0%
- Preventive effect (percent of the average length of lesion/stem per control untreated) (Pellicularia sasakii [5]; 300 ppm): 0%
- Remedial effect (percent of the average length of lesion/stem per control untreated) (Pellicularia sasakii [6]; 3 ppm): 83%
- Remedial effect (percent of the average length of lesion/stem per control untreated) (Pellicularia sasakii [6]; 10 ppm): 28%
- Remedial effect (percent of the average length of lesion/stem per control untreated) (Pellicularia sasakii [6]; 30 ppm): 14%
- Remedial effect (percent of the average length of lesion/stem per control untreated) (Pellicularia sasakii [6]; 100 ppm): 10%
- Remedial effect (percent of the average length of lesion/stem per control untreated) (Pellicularia sasakii [6]; 300 ppm): 7%
- Degree of damage (Rhyzoctonia solani; 5 ppm): 84%
- Degree of damage (Rhyzoctonia solani; 20 ppm): 6%
- Degree of damage (Rhyzoctonia solani; 80 ppm): 0%
- Specific area of lesion (Cladosporium fulvum): 6%
- controlling effect against plant diseases, for example, the sheath blight of the rice plant (plant diseases): excellent controlling effect
- effectiveness against sheath blight and stem rot of rice plant, damping off and sclerotial blight of vegetables, flowering plants and lumber seedlings (plant diseases): very effective
- harmfulness to men and beasts, as well as to fish [7]: substantially harmless
- effect on germination, growth, yield and other features of useful plants (useful plants): do not substantially affect

SMILES: OCC1=C[C@H](NC2C(O)C(O)C(O)C(CO)C2O)[C@H](O)[C@@H](O)[C@@H]1O (some centres unmarked) [Validoxylamine B]
- highest dilution factor that causes an abnormal branching at the hyphal tips of Pellicularia sasakii (Pellicularia sasakii [1]): 10
- dilution unit (maximum dilution which produces abnormal branching) (Pellicularia sasakii [1]): 10 dilution unit/ml.
- antimicrobial potency / growth inhibition of bacteria and fungi in vitro (bacteria and fungi): no antimicrobial potency
- pKa [2]: 5 ± 0.2
- solubility in methanol (Solubilities): more sparingly soluble
- solubility in pyridine (Solubilities; pyridine): more sparingly soluble
- LD50 [3]: > 2000 mg/kg
- LC50 at 48 h [4]: > 1000 µg/mL
- Preventive effect (percent of the average length of lesion/stem per control untreated) (Pellicularia sasakii [5]; 3 ppm): 49%
- Preventive effect (percent of the average length of lesion/stem per control untreated) (Pellicularia sasakii [5]; 10 ppm): 47%
- Preventive effect (percent of the average length of lesion/stem per control untreated) (Pellicularia sasakii [5]; 30 ppm): 32%
- Preventive effect (percent of the average length of lesion/stem per control untreated) (Pellicularia sasakii [5]; 100 ppm): 16%
- Preventive effect (percent of the average length of lesion/stem per control untreated) (Pellicularia sasakii [5]; 300 ppm): 8%
- Remedial effect (percent of the average length of lesion/stem per control untreated) (Pellicularia sasakii [6]; 10 ppm): 93%
- Remedial effect (percent of the average length of lesion/stem per control untreated) (Pellicularia sasakii [6]; 30 ppm): 75%
- Remedial effect (percent of the average length of lesion/stem per control untreated) (Pellicularia sasakii [6]; 100 ppm): 51%
- Remedial effect (percent of the average length of lesion/stem per control untreated) (Pellicularia sasakii [6]; 300 ppm): 10%
- Degree of damage (Rhyzoctonia solani; 5 ppm): 100%
- Degree of damage (Rhyzoctonia solani; 20 ppm): 100%
- Degree of damage (Rhyzoctonia solani; 80 ppm): 75%
- Specific area of lesion (Cladosporium fulvum): 36%
- controlling effect against plant diseases, for example, the sheath blight of the rice plant (plant diseases): excellent controlling effect
- effectiveness against sheath blight and stem rot of rice plant, damping off and sclerotial blight of vegetables, flowering plants and lumber seedlings (plant diseases): very effective
- harmfulness to men and beasts, as well as to fish [7]: substantially harmless
- effect on germination, growth, yield and other features of useful plants (useful plants): do not substantially affect
